Source: paper PMC9606943, “Synthesis and Chemopreventive Potential of 5-FU/Genistein Hybrids on Colorectal Cancer Cells” (Pharmaceuticals, 2022)
Like-named read-outs stand apart in the source and are kept apart here.

Experiments:
[1] = tested on: SW480; test: Sulforhodamine B cytotoxicity assay, SW480; type: cell-based, human; settings: 48 h; for IC50: mean ± SE
Protocol: (§1) Two colon cancer cells (SW480 and SW620) and non-malignant cell lines (human keratinocytes, HaCaT; chinese hamster ovary, CHO-K1) were obtained from The European Collection of Authenticated Cell Cultures (ECACC, England). For biological evaluations, cells were cultured in Dulbecco’s Modified Eagle Medium, supplemented with 10% heat-inactivated (56 °C) horse serum, 1% penicillin/streptomycin and 1% non-essential amino acids (Gibco Invitrogen, Carlsbad, CA, USA). During the treatments, the serum was reduced to 3%, and the medium was supplemented with insulin ([…]) transferrin ([…]) and selenium (5 ng/mL) (ITS-defined medium; Gibco, Invitrogen, Carlsbad, USA). To avoid Mycoplasma spp. contamination, cell cultures were regularly tested by polymerase chain reaction.
(§2) Briefly, cells were seeded at 20,000 cells/well (for cytotoxicity assay) and 2500 cells/well (for the antiproliferative test) in 96-well tissue culture plates, incubating at 37 °C in a humidified atmosphere with 5% CO2. After the adaptation time (24 h), cells were treated with increasing concentrations of the hybrid molecules or DMSO (1%). At the end of each treatment, cells were fixed with trichloroacetic acid (50% v/v; MERCK) for one hour at 4 °C. Subsequently, cell proteins were stained with SRB (0.4% w/v; Sigma-Aldrich, United States) and washed with acetic acid (1%). After drying at room temperature, Tris-base (10 mM) was added to solubilize protein bound stain. Absorbance was read in a microplate reader (Mindray MR-96A) at 492 nm. All experiments were performed at least in duplicate.

[2] = tested on: SW620; test: Sulforhodamine B cytotoxicity assay, SW620; type: cell-based, human; settings: 48 h; for IC50: mean ± SE
Protocol: as §1, §2

[3] = tested on: HaCaT; test: Sulforhodamine B cytotoxicity assay, HaCaT; type: cell-based, human; settings: 48 h, mean ± SE, non-malignant cells
Protocol: as §1, §2

[4] = tested on: CHO-K1; test: Sulforhodamine B cytotoxicity assay, CHO-K1; type: cell-based, chinese hamster; settings: 48 h, mean ± SE, non-malignant cells
Protocol: as §1, §2

[5] = tested on: Hep-G2; settings: cited from earlier work
[6] = tested on: RD; settings: cited from earlier work
[7] = tested on: LU-1; settings: cited from earlier work
[8] = tested on: FL; settings: cited from earlier work
[9] = tested on: normal VERO cells; settings: cited from earlier work
[10] = tested on: human gastric cancer cell line (SGC-7901); design: method as in doi:10.1039/C6MD00268D; settings: cited from earlier work

## 5-fluoro-1-((1-(3-((5-hydroxy-3-(4-hydroxyphenyl)-4-oxo-4H-chromen-7-yl)oxy)dodecyl)-1H-1,2,3-triazol-4-yl)methyl)pyrimidine-2,4(1H,3H)-dione
[1]
  IC50: > 100 µM
[2]
  Selectivity Index (SI) CHO-K1/620: >1.20
  Selectivity Index (SI) HaCaT/SW620: >1.20
  IC50: 83.6 ± 8.05 µM
[3]
  IC50: > 100 µM
[4]
  IC50: > 100 µM

## O=c1[nH]c(=O)n(Cc2cn(CCCOc3cc(O)c4c(=O)c(-c5ccc(O)cc5)coc4c3)nn2)cc1F [4b, 5-fluoro-1-((1-(3-((5-hydroxy-3-(4-hydroxyphenyl)-4-oxo-4H-chromen-7-yl)oxy)propyl)-1H-1,2,3-triazol-4-yl)methyl)pyrimidine-2,4(1H,3H)-dione]
[1]; Homo sapiens, SW480
  IC50: > 100 µM
[2]; Homo sapiens, SW-620
  IC50: > 100 µM
[3]; Homo sapiens, HaCaT
  IC50: > 100 µM
[4]; Cricetulus griseus, CHO-K1
  IC50: > 100 µM
other
  melting point: 175 to 178 °C

## 5-fluoro-1-((1-(3-((5-hydroxy-3-(4-hydroxyphenyl)-4-oxo-4H-chromen-7-yl)oxy)pentyl)-1H-1,2,3-triazol-4-yl)methyl)pyrimidine-2,4(1H,3H)-dione [4d]
[1]
  IC50: > 100 µM
[2]
  IC50: > 100 µM
[3]
  IC50: > 100 µM
[4]
  IC50: > 100 µM

## 5-fluoro-1-((1-(3-((5-hydroxy-3-(4-hydroxyphenyl)-4-oxo-4H-chromen-7-yl)oxy)hexyl)-1H-1,2,3-triazol-4-yl)methyl)pyrimidine-2,4(1H,3H)-dione [4e]
[1]
  IC50: > 100 µM
[2]
  IC50: > 100 µM
[3]
  IC50: > 100 µM
[4]
  IC50: > 100 µM

## CC(C)c1ccc(/C=C/C(=O)c2cc(Cn3cc(F)c(=O)[nH]c3=O)ccc2O)cc1 [B]
[5]
  IC50: 4.68 µM
[6]
  IC50: 10.8 µM
[7]
  IC50: 11.9 µM
[8]
  IC50: 8.17 µM
[9]
  IC50: 15 µM

## O=c1[nH]cc(F)c(=O)[nH]1 [5-FU, 5-fluorouracil]
[1]
  Selectivity Index (SI) CHO-K1/SW480: 0.99
  Selectivity Index (SI) HaCaT/SW480: 0.68
[9]
  IC50: 3.33 µM
[10]; at 50 µM
  selectivity index SGC-7901 versus GES-1: 0.88
[10]; at the concentration of 10 µM
  selectivity index SGC-7901 versus GES-1: 0.74
